Results on 24 compounds are retold here after patent US9512091B2, “Compositions and methods for the modulation of specific amidases for N-acylethanolamines for use in the therapy of inflammatory diseases” (Epitech Group S.r.l., priority 2012, dated 2016).

Data set [1] concerns the target T1, NAAA (N-Acylethanolamine Hydrolizing Acid Amidase) (Homo sapiens, UniProt Q02083).
T1 construct: expressed in transfected cells; host or cells: HEK cells permanently transfected with NAAA (HEK-NAAA); 12000 g membrane fraction
T1 sequence (Q02083 29-359): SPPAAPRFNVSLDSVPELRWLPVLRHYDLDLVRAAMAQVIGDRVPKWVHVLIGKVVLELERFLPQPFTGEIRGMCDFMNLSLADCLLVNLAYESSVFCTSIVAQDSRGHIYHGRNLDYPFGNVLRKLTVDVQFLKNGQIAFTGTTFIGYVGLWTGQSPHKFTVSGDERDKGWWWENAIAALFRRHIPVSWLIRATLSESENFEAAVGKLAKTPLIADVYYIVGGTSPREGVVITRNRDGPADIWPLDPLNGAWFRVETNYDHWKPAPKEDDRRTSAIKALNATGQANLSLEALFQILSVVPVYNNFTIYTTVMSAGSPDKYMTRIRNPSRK
As to the kind of experiment: Activity on the NAAA enzyme, membranes of HEK-NAAA cells, [14C]PEA hydrolysis. In kind it is biochemical. The conditions noted are these: HEK-NAAA membranes 50 μg/sample, [14C]PEA 20 μM, 30 min at 37° C.; mean of 10 experiments; read-out: Inhibition of NAAA IC50 (after 30 min incubation). How it is done:
The effect of the samples being analysed on the enzymatic activity of the NAAA (N-Acylethanolamine Hydrolizing Acid Amidase) was determined on suitably permanently transfected cellular lines (HEK-NAAA). The cells were homogenised using TRIS-HCl 20 Mm (pH 7.4) by means of dounce. Subsequently a mild centrifugation (10 min, 800 g, 4° C.) was carried out for removing the cellular debris. The cellular fraction containing the membranes was obtained by means of subsequent centrifugation (30 min, 12000 g, 4° C.). The membranes (50 μg/sample) were incubated for 30 min at 37° C. with [^14C]PEA (20 μM; 10000 cpm/sample; 5 nCi/nmols) in presence and in absence of the substances to be tested. The incubation was blocked by adding 2 volumes of CHCl3/CH3OH (1:1/v:v). The radioactivity associated to the aqueous phase containing [^14C]Ethanolamine (produced by the hydrolysis of the radioactive substrate) was determined by means of β-Counter (Beckman Counter, LS6500 Scintillation Counters, Milan).

A short description of data set [2]: Solubility of the prepared product. The conditions noted are these: for solubility / Solubility in ethanol: ethanol; for solubility: organic solvent or mixture. Type of data set: physicochemical.
Data set [3] concerns edema of the legs induced by sub-plantar carrageenan. Description: Carrageenan edema of the legs, plantar volume by plethysmometer. In kind it is in vivo, rat. The conditions noted are these: for increase of plantar volume in percentage with respect to carrageenan alone (carrageenan=100): rat, PEA 33 μM/Kg, PEA-OXA (30 mg/Kg) μM/Kg, 5 experiments. The procedure:
The experimental model of edema of the legs is induced through sub-plantar injection of a carrageenan solution (containing 50 μl of sterile saline solution and 1% of carrageenan) in the right leg of the animal (rat).
At specific time intervals the plantar volume is measured by means of a plethysmometer (Ugo Basile, Milan, Italy). The increase of the plantar volume is evaluated as the difference between the value obtained in the specific time intervals and the volume at the basal (time 0) measured immediately before the administration of carrageenan.
The data obtained from 5 different experiments, each involving 10 animals per group, were tabled (tab 2) in percentage with respect to the animals treated with carrageenan alone (carrageenan=100): […]

For data set [4], the system named is hepatic esterases. The conditions noted are these: prior-art statement on poor selectivity; cited from earlier work.

Where only a bound is given, the exact number is not on record here.

As a reminder, the IC50 is the concentration that gives 50% inhibition. For `O=C(CCc1ccccc1)N[C@H]1COC1=O` [(S)-N-(2-oxo-3-oxetanyl)-3-phenylpropionamide, reference compound], the half-maximal inhibitory concentration (IC50) in data set [1] is 0.42 µM.
As a reminder, the solubility is the dissolved amount per volume that the medium holds. Consider `CCCCCCCCCCCCCCCC1=NC(C)(C)CO1` [Example 5, 2-pentadecyl-4,4-dimethyl-2-oxazoline], for which, in data set [2], the solubility was more than 10000 µg/mL and the Solubility in water entry is recorded as “poorly soluble”.
For `CCCCCCCCCCCCCCCC1=NC(CO)(CO)CO1` [Example 6, 2-pentadecyl-4,4-bis(hydroxymethyl)-2-oxazoline] the same measures were more than 10000 µg/mL and “poorly soluble”.
By melting point is commonly meant the temperature, or range, at which the solid turns liquid. In turn, `CCCCCCCCCCCCCCC1=NCCO1` [Example 7, 2-tetradecyl-2-oxazoline] registered a melting point of 41 to 44 °C. In data set [2], the solubility was more than 10000 µg/mL and the Solubility in water result is recorded as “poorly soluble”.
For `CCCCCCCCCCCCCCCCC1=NCCO1` [Example 8, 2-hexadecyl-2-oxazoline] the same measures were 49 to 51 °C, more than 10000 µg/mL and “poorly soluble”.
As for `CCCCCCCCCCCCCCCC1=NC[C@@H](C)O1` [Example 9, 2-pentadecyl-5(R)-methyl-2-oxazoline], in data set [2], the solubility is more than 10000 µg/mL and the Solubility in water entry is “poorly soluble”.
For `CCCCCCCCCCCCCCCC1=NC[C@H](C)O1` [Example 10, 2-pentadecyl-5(S)-methyl-2-oxazoline] the same measures were more than 10000 µg/mL and “poorly soluble”.
Consider `CCCCCCCCCCCCCCCC1=N[C@H](C)CO1` [Example 11, 2-pentadecyl-4(R)-methyl-2-oxazoline], for which, in data set [2], the solubility was more than 10000 µg/mL and the Solubility in water result is on record as “poorly soluble”.
With `CCCCCCCCCCCCCCCC1=N[C@@H](C)CO1` [Example 12, 2-pentadecyl-4(S)-methyl-2-oxazoline], in data set [2], the solubility was more than 10000 µg/mL and the Solubility in water result is recorded as “poorly soluble”.
For `CCCCCCCCCCCCCCCC1=NC(CO)CO1` (centres unmarked) [Example 13, 2-pentadecyl-4-hydroxymethyl-2-oxazoline] the same measures were more than 10000 µg/mL and “poorly soluble”.
In the case of `CCCCCCCCCCCCCCCC1=NC(C(=O)OC)CO1` (centres unmarked) [Example 14, 2-pentadecyl-4-methyloxycarbonyl-2-oxazoline], in data set [2], the solubility is more than 10000 µg/mL and the Solubility in water entry was “poorly soluble”.
For `CCCCCCCCCCCCCCCC1=NC(C(=O)O)CO1` (centres unmarked) [Example 14b, 2-pentadecyl-4-carboxy-2-oxazoline] the same measures were more than 10000 µg/mL and “poorly soluble”.
For the compound `CCCCCCCCCCCCCCCC1=NCCCO1` [Example 15, 2-pentadecyl-2-oxazine], in data set [2], the Solubility in ethanol is more than 10000 µg/mL and the Solubility in water entry is “poorly soluble”.
For `CCCCCCCCCCCCCCCC1=NCCS1` [Example 16, 2-pentadecyl-2-thiazoline], in data set [2], the solubility was more than 10000 µg/mL and the Solubility in water result is given as “poorly soluble”.
On to `CCCCCCCCCCCCCC(=O)NCCO` [MEA, Myristoyl ethanolamide, reference compound], for which the concentration for half-maximal inhibition (IC50) in data set [1] is more than 50 µM.
Turning to `CCCCCCCCCCCCCC1=NCCO1` [MEA-OXA, 2-tridecyl-2-oxazoline], the IC50 in data set [1] was determined as 41.5 ± 0.032 µM. For the same compound, in data set [2], the solubility is more than 10000 µg/mL and the Solubility in water entry is “poorly soluble”.
Regarding `CCCCCCCC/C=C\CCCCCCCC(=O)NCCO` [OEA, Oleoylethanolamine, reference compound], the IC50 in data set [1] is more than 50 µM.
In the case of `CCCCCCCCC=CCCCCCCCC1=NCCO1` [OEA-OXA, 2-(8-heptadecenyl)-2-oxazoline], in data set [1], the half-maximal inhibitory concentration (IC50) is 38.4 ± 0.034 µM. For the same compound, in data set [2], the solubility was more than 10000 µg/mL and the Solubility in water result is “poorly soluble”.
In the case of `CCCCCCCCCCCCCCCC(=O)NCCO` [PEA, Palmitoylethanolamide, reference compound], the IC50 in data set [1] was more than 50 µM. For the same compound, the “increase of plantar volume in percentage with respect to carrageenan alone (carrageenan=100)” value (shortened to “increase of plantar volume in percentage”) in data set [3] (30 min) came to 89.2 ± 2.2%; in data set [3] (1 hr), 82 ± 1.8%; in data set [3] (2 hrs), 78.3 ± 1.6%; in data set [3] (3 hrs) it was 73.9 ± 2.1%; in data set [3] (4 hrs), 70.1 ± 1.9%; in data set [3] (5 hrs), 54.5 ± 0.63%. Besides, in data set [3] (6 hrs), the “increase of plantar volume in percentage” value amounted to 32.9 ± 0.41%.
Consider `CCCCCCCCCCCCCCCC1=NCCO1` [PEA-OXA, 2-pentadecyl-2-oxazoline], for which the IC50 in data set [1] stood at 24.2 ± 0.018 µM. Besides, the “increase of plantar volume in percentage” value is on record as 88.2 ± 2.0% in data set [3] (30 min); 81.2 ± 2.1% in data set [3] (1 hr); 66.6 ± 0.78% in data set [3] (2 hrs); 59.6 ± 0.62% in data set [3] (3 hrs); 51.4 ± 0.58% in data set [3] (4 hrs); 43.0 ± 0.42% in data set [3] (5 hrs). The “increase of plantar volume in percentage” value in data set [3] (6 hrs) amounted to 31.2 ± 0.22%. The “anti-inflammatory activity with respect to PEA” value in data set [3] (rat carrageenan edema, especially between 2 and 5 hours from carrageenan) is listed as “greater anti-inflammatory activity”. Further, the solubility in data set [2] is more than 10000 µg/mL. Besides, the Solubility in water result in data set [2] is “poorly soluble”.
As for `CCCCCCCCCCCCCCCC1=NCCO1` [PEA-OXLE], the half-maximal inhibitory concentration (IC50) in data set [1] was determined as 32.1 ± 0.031 µM. In data set [2], the Solubility in ethanol is more than 10000 µg/mL and the Solubility in water result is reported as “poorly soluble”.
With `CCCCCCCCCCCCCCCCCC(=O)NCCO` [SEA, Stearylethanolamide, reference compound], in data set [1], the half-inhibitory concentration (IC50) is more than 50 µM.
The compound `CCCCCCCCCCCCCCCCCC1=NCCO1` [SEA-OXA, 2-heptadecyl-2-oxazoline] had a melting point of 51 to 53 °C. The IC50 in data set [1] is 35 ± 0.021 µM. Moreover, in data set [2], the solubility was more than 10000 µg/mL and the Solubility in water result is reported as “poorly soluble”.
Regarding `NC(=O)c1cccc(-c2cccc(OC(=O)NC3CCCCC3)c2)c1` [URB597, cyclohexyl carbamic acid 3′-carbamoyl-biphenyl-3-yl ester], the “inhibition of hepatic esterases” value in data set [4] was “more than 40%”.
